Holding throughout (experiment): ≥ marks a high value that may be exact or a test limit, other limits are often not marked, values filed in µg/mL are converted to µM
Assay [1] deals with Bacillus subtilis IFO 3134.
Assay [2] concerns Escherichia coli IFO 12734.
Assay [3] concerns Pseudomonas aeruginosa IFO 12582.
Assay [4] relates to Staphylococcus aureus IFO 12732.
Assay [5] relates to Acinetobacter baumannii NM109.
Assay [6] deals with Acinetobacter baumannii NM124.
Assay [7] has as its system Acinetobacter baumannii NM35.
Assay [8] relates to Acinetobacter baumannii NM75.
The test system of assay [9] is Acinetobacter baumannii NM8.
In assay [10] the test system is Candida albicans ATCC 90028.
Assay [11] relates to Enterococcus faecalis ATCC 29212.
The subject of assay [12] is Erwinia amylovora PMV 6076.
For assay [13], the system named is Escherichia coli ATCC 25726.
Assay [14] relates to Klebsiella pneumoniae ATCC 700603.
The test system of assay [15] is Pseudomonas aeruginosa ATCC 27853.
The subject of assay [16] is Pseudomonas syringae pv. actinidiae Psa3700.1.1.
Assay [17] deals with Pseudomonas syringae pv. syringae EPS 94.
In assay [18] the test system is Staphylococcus aureus 127/08.
For assay [19], the system named is Staphylococcus aureus 145/08.
Assay [20] has as its system Staphylococcus aureus 274/08.
The subject of assay [21] is Staphylococcus aureus ATCC 25923.
Assay [22] deals with Staphylococcus aureus S908.
Assay [23] relates to Staphylococcus aureus T4/6.
The subject of assay [24] is Staphylococcus aureus V4180.
The test system of assay [25] is Staphylococcus epidermidis RP62A/1.
Assay [26] concerns Staphylococcus epidermidis RP62A.
The test system of assay [27] is Staphylococcus epidermidis T37/8.
The test system of assay [28] is Staphylococcus epidermidis T6/19.
Assay [29] concerns Stenotrophomonas maltophilia B32/1.
In assay [30] the test system is Stenotrophomonas maltophilia B32/4.
Assay [31] deals with Stenotrophomonas maltophilia B5/5.
Assay [32] relates to Stenotrophomonas maltophilia B6/2.
Assay [33] deals with Stenotrophomonas maltophilia U8908.
Assay [34] has as its system Xanthomonas arboricola pv. pruni CFBP 5563.
Assay [35] concerns Xanthomonas campestris pv. Vesicatoria 2133-2.
The test system of assay [36] is Xanthomonas fragariae Xf349-9A.
Assay [37] concerns Bacillus subtilis PCI 219.
Assay [38] deals with Escherichia coli NIHJ JC-2.
The subject of assay [39] is Pseudomonas aeruginosa U-31.
Assay [40] has as its system Staphylococcus aureus FDA 209P.
For assay [41], the system named is Staphylococcus aureus A170.
Assay [42] relates to Staphylococcus epidermidis.
Another assay relates to Escherichia coli W160-37.
The test system of a further assay is Staphylococcus aureus.

Converted amounts (≈) assume the structure as drawn. Where only a bound is given, the exact number is not on record here.

As to `CC[C@H](C)[C@H](NC(=O)[C@H](C)NC(=O)[C@@H]1CCCN1C(=O)[C@@H](NC(=O)[C@@H](NC(=O)[C@H](Cc1cnc[nH]1)NC(=O)[C@H](C)NC(=O)[C@H](C)NC(=O)[C@@H](NC(=O)[C@H](CCCCN)NC(=O)[C@H](C)NC(=O)[C@H](CC(C)C)NC(=O)[C@@H](NC(=O)CNC(=O)[C@H](Cc1ccccc1)NC(=O)[C@H](C)N)C(C)C)C(C)C)C(C)C)C(C)C)C(=O)N[C@@H](C)C(=O)N[C@@H](CCC(=O)O)C(=O)N[C@@H](Cc1cnc[nH]1)C(=O)N[C@@H](Cc1ccccc1)C(N)=O` [AFGVLAKVAAHVVPAIAEHF], the minimum inhibitory concentration (MIC) in [1], in [2], in [3] and in [4] was no less than 64 µM each time.

Take `CC[C@H](C)[C@H](NC(=O)[C@H](C)NC(=O)[C@H](CCCCN)NC(=O)CNC(=O)[C@@H](NC(=O)[C@H](Cc1cnc[nH]1)NC(=O)CNC(=O)[C@H](CC(C)C)NC(=O)[C@H](CC(C)C)NC(=O)[C@@H](NC(=O)CNC(=O)[C@@H](NC(=O)[C@H](CC(C)C)NC(=O)CN)C(C)C)[C@@H](C)O)[C@@H](C)CC)C(=O)N[C@@H](CC(C)C)C(=O)N[C@@H](CO)C(N)=O` [GLVGTLLGHIGKAILS]: the MIC was no less than 125 µM in assay [5]; no less than 125 µM in assay [6]; no less than 125 µM in assay [7]; no less than 62.5 µM in [8]; no less than 125 µM in assay [9]; no less than 62.5 µM in [10]. In addition, the MIC in [11] was 62.5 µM (≈ 96.7 µg/mL); in [12], no less than 35.4 µM; in [13], no less than 125 µM; in [14], 250 µM (≈ 387 µg/mL); in [15], 250 µM (≈ 387 µg/mL); in assay [16], no less than 50 µM. The MIC in [17] was no less than 50 µM; in [18], 8 µM (≈ 12.4 µg/mL); in assay [19], 16 µM (≈ 24.8 µg/mL); in assay [20], 16 µM (≈ 24.8 µg/mL); in assay [21], 16 µM (≈ 24.8 µg/mL); in [22] it was 16 µM (≈ 24.8 µg/mL). Also, the minimal inhibitory concentration (MIC) in assay [23] came to 16 µM (≈ 24.8 µg/mL); in assay [24] it was 16 µM (≈ 24.8 µg/mL); in assay [25], 8 µM (≈ 12.4 µg/mL); in [26], 16 µM (≈ 24.8 µg/mL); in [27], 16 µM (≈ 24.8 µg/mL); in [28] it was 8 µM (≈ 12.4 µg/mL). For the same molecule, the MIC was no less than 62.5 µM in assay [29]; no less than 62.5 µM in assay [30]; no less than 62.5 µM in assay [31]; 31.3 µM (≈ 48.4 µg/mL) in assay [32]; no less than 62.5 µM in [33]; 8.8 µM (≈ 13.6 µg/mL) in assay [34]. For the same molecule, the values for the MIC in assay [35] and in assay [36] were 8.8 µM (≈ 13.6 µg/mL) and no less than 35.4 µM, respectively.

Regarding `CC(C)C[C@H](NC(=O)[C@H](CCCCN)NC(=O)[C@H](CCCCN)NC(=O)[C@H](CC(C)C)NC(=O)[C@H](CC(C)C)NC(=O)[C@H](CCCCN)NC(=O)[C@H](CCCCN)NC(=O)[C@H](Cc1c[nH]c2ccccc12)NC(=O)[C@H](CC(C)C)NC(=O)[C@H](CCCCN)NC(=O)[C@H](CC(C)C)NC(=O)[C@H](CC(C)C)NC(=O)[C@H](CCCCN)NC(=O)[C@H](CCCCN)NC(=O)[C@H](CC(C)C)NC(=O)[C@H](CC(C)C)NC(=O)[C@@H](N)CCCCN)C(=O)N[C@@H](CCCCN)C(=O)O` [KLLKKLLKLWKKLLKKLK], the minimum inhibitory concentration (MIC) in assay [37], in assay [38], in [39] and in assay [40] was no less than 44.2 µM in each case.

Consider `CC[C@H](C)[C@H](NC(=O)[C@@H]1CCCN1C(=O)[C@H](CC(C)C)NC(=O)[C@@H](N)CC(C)C)C(=O)N[C@H](C(=O)N[C@H](C(=O)N[C@@H](CC(N)=O)C(=O)N[C@@H](CC(C)C)C(=O)N[C@@H](CC(C)C)C(=O)N[C@@H](CCCCN)C(=O)N[C@@H](CO)C(=O)N[C@@H](CC(C)C)C(=O)N[C@@H](CC(C)C)C(=O)O)C(C)C)C(C)C` [LLPIVVNLLKSLL], for which the values for the minimal inhibitory concentration (MIC) in [41] and in assay [42] were 6.97 µM (≈ 10 µg/mL) and 13.9 µM (≈ 20 µg/mL), respectively.

`CC[C@H](C)[C@H](NC(=O)[C@H](Cc1c[nH]c2ccccc12)NC(=O)[C@H](CCCCN)NC(=O)[C@H](CO)NC(=O)[C@H](CC(C)C)NC(=O)[C@H](Cc1ccccc1)NC(=O)[C@@H](NC(=O)[C@H](CCCCN)NC(=O)[C@H](CC(C)C)NC(=O)[C@H](CCCCN)NC(=O)[C@@H]1CCCN1)[C@@H](C)O)C(=O)NCC(=O)O` [PKLKTFLSKWIG]: the results for the MIC against Escherichia coli W160-37 and in the assay with Staphylococcus aureus were no less than 107 µM and 107 µM (≈ 152 µg/mL), respectively.

Usually MIC stands for the lowest concentration that inhibits growth of the organism.

For the origin of these results see DBAASP.
